Structures can show the parent of a compound that is named as a salt.
Test system: IL-1β production in THP-1 cells (LPS and ATP; NLRP3 inflammasome activation)
Assay: THP-1 IL-1β production inhibitory test
Assay type: cell-based, human
Settings: Homo sapiens, THP-1, 2 h, PMA-differentiated THP-1 cells, LPS 50 ng/mL and ATP 5 mM, 2 hours, ELISA; read-out: IC50 (nM), IL-1β production
Protocol: THP-1 IL-1β Production Inhibitory Test
To THP-1 cells, 50 ng/mL PMA (phorbol myristate acetate, SIGMA, P1585) was added at 37° C. and then the cells were cultured for 2 days. […] The cells were cultured at 37° C. for 15 minutes. LPS (lipopolysaccharide, SIMGA, L2880) and ATP (adenosine triphosphate, SIGMA, A2383) were added such that the final concentrations of them became 50 ng/mL and 5 mM, respectively. The cells were cultured at 37° C. for 2 hours. The supernatant was collected and the concentration of IL-1β was measured by ELISA (DuoSet ELISA human IL-1β, R&D Systems, DY201). The concentration of IL-1β was plotted against the logarithm of the concentration of the test compound, and the IC50 value was calculated by sigmoidal Emax model nonlinear regression analysis.

SMILES | IC50
Cc1ccc(-c2nnc(N[C@H]3CCNC3=O)nc2C)c(O)c1 [Example 71] | 8.2 nM
CC[C@@H](O)CNc1nnc(-c2ccc(C(F)(F)F)cc2O)c(C)n1 [Example 14] | 62 nM
Cc1ccc(-c2nnc(N[C@@H]3CCCC[C@H]3O)nc2C2CC2)c(O)c1 [Example 117] | 19 nM
CC(=O)NCCCCNc1nnc(-c2ccc(C(F)(F)F)cc2O)c(C)n1 [Example 86] | 12 nM
Cc1nc(Nc2cnn(CCO)c2)nnc1-c1ccc(C(F)(F)F)cc1O [Example 89] | 230 nM
C[C@@]1(O)CCCC[C@H]1Nc1nnc(-c2ccc(OC(F)(F)F)cc2O)c(C2CC2)n1 [Example 124] | 37 nM
O=C1NCC[C@@H]1Nc1nnc(-c2ccc(OC(F)(F)F)cc2O)c(C2CC2)n1 [Example 126] | 20 nM
O=C1NCC[C@@H]1Nc1nnc(-c2ccc(Cl)cc2O)c(C2CC2)n1 [Example 125] | 33 nM
Cc1nc(N[C@@H]2CCCC[C@H]2O)nnc1-c1cc(F)c(C(F)(F)F)cc1O [Example 169] | 38 nM
Cc1nc(NCc2cccnc2)nnc1-c1ccc(C(F)(F)F)cc1O [Example 92] | 200 nM
Cc1ccc(-c2nnc(N[C@H]3C[C@@](C)(O)C3)nc2C2CC2)c(O)c1 [Example 119] | 42 nM

Now from value to compound:

IC50 | SMILES
28 nM | Cc1nc(N[C@@H]2CCCNC2=O)nnc1-c1ccc(C(F)(F)F)cc1O [Example 42]
53 nM | Cc1nc(NC2CCS(=O)(=O)CC2)nnc1-c1ccc(C(F)(F)F)cc1O [Example 12]
1.3 nM | Cc1nc(N[C@@H]2CCCN(C)C2)nnc1-c1ccc(C(F)(F)F)cc1O [Example 187, 2-(5-methyl-3-{[(3R)-1-methylpiperidin-3-yl]amino}-1,2,4-triazin-6-yl)-5-(trifluoromethyl)phenol dihydrochloride]
58 nM | Cc1nc(NC2CCC(C(N)=O)NC2)nnc1-c1ccc(C(F)(F)F)cc1O (stereo not shown) [Example 173]
850 nM | CC(=O)N1CCOC[C@@H]1CNc1nnc(-c2ccc(C(F)(F)F)cc2O)c(C)n1 [Example 158]
12 nM | Cc1nc(N[C@@H]2CCOC[C@@]2(C)O)nnc1-c1ccc(C(F)(F)F)cc1O [Example 80]
69 nM | Cc1nc(NCCCO)nnc1-c1ccc(C(F)(F)F)cc1O [Example 3]
11 nM | Cc1ccc(-c2nnc(N[C@@H]3CCCC[C@H]3O)nc2C)c(O)c1 [Example 37]
290 nM | Cc1nc(N[C@@H]2COCC[C@H]2O)nnc1-c1ccc(C(F)(F)F)cc1O [Example 21]
95 nM | Cc1nc(N[C@@H]2CCNC2)nnc1-c1ccc(C(F)(F)F)cc1O [Example 133]
120 nM | CC(=O)N1CC[C@@H](Nc2nnc(-c3ccc(C(F)(F)F)cc3O)c(C)n2)[C@H](O)C1 [Example 159, 1-[(3R,4R)-3-hydroxy-4-({6-[2-hydroxy-4-(trifluoromethyl)phenyl]-5-methyl-1,2,4-triazin-3-yl}amino)piperidin-1-yl]ethan-1-one]
15 nM | Cc1nc(N[C@@H]2CCOC[C@H]2O)nnc1-c1ccc(C(F)(F)F)cc1O [Example 11]
22 nM | CC(=O)N[C@@H]1CCCC[C@H]1Nc1nnc(-c2ccc(C(F)(F)F)cc2O)c(C)n1 [Example 152, N-[(1R,2R)-2-({6-[2-hydroxy-4-(trifluoromethyl)phenyl]-5-methyl-1,2,4-triazin-3-yl}amino)cyclohexyl]acetamide]
32 nM | Cc1nc(NC[C@H](C)CO)nnc1-c1ccc(C(F)(F)F)cc1O [Example 2]
17 nM | Oc1cc(C(F)(F)F)ccc1-c1nnc(N[C@@H]2CCCC[C@H]2O)nc1C1CC1 [Example 109]
620 nM | Cc1nc(N[C@H]2CCN(C)C2=O)nnc1-c1ccc(C(F)(F)F)cc1O [Example 74]

Same assay, conditions: Homo sapiens, THP-1, 2 h, read-out: IC50 (nM), IL-1β production

SMILES | IC50
Cc1nc(N[C@@H]2CCC[C@H](O)C2)nnc1-c1ccc(C(F)(F)F)cc1O [Example 185, 2-(3-{[(1R,3S)-3-hydroxycyclohexyl]amino}-5-methyl-1,2,4-triazin-6-yl)-5-(trifluoromethyl)phenol monohydrochloride] | 5.2 nM

From US12692241B2, “Substituted triazine compound” (Nico Therapeutics, Inc., priority 2021, dated 2026)
